The target of one assay is T1, human COX-1 (Homo sapiens, UniProt P23219).
T1 construct: expressed in transfected cells; host or cells: COS cells (stably transfected)
Nature of the assay: Inhibition of PGE2 release in COS cells stably transfected with human COX-1. It is filed as cell-based. As to conditions: COS cells transfected with human COX-1; 1 hour preincubation, 30 μM arachidonic acid for 15 minutes, PGE2 by enzyme immunoassay. The procedure: (§1) Inhibitory activity against human COX-1 and COX-2 was assessed in COS cells which had been stably transfected with cDNA for human COX-1 and human COX-2. 24 Hours prior to experiment, COS cells were transferred from the 175 cm^2 flasks in which they were grown, onto 24-well cell culture plates using the following procedure. The incubation medium (Dulbecco's modified eagles medium (DMEM) supplemented with heat-inactivated foetal calf serum (10% v/v), penicillin (100 IU/ml), streptomycin (100μg/ml) and geneticin (600 μg/ml)) was removed from a flask of confluent cells (1 flask at confluency contains approximately 1×10^7 cells). 10 ml of phosphate buffered saline (PBS) was added to the flask to wash the cells. Having discarded the PBS, cells were then rinsed in 10 ml trypsin for 20 seconds, after which the trypsin was removed and the flask placed in an incubator (37°) for 1-2 minutes until cells became detached from the flask. The flask was then removed from the incubator and cells resuspended in 10 ml of fresh incubation medium. The contents of the flask was transferred to a 250 ml sterile container and the volume of incubation medium subsequently made up to 100 ml. 1 ml cell suspension was pipetted into each well of 4×24-well cell culture plates. The plates were then placed in an incubator (37° C., 95% air/5% CO2) overnight. If more than 1 flask of cells were required, the cells from the individual flasks were combined before being dispensed into the 24-well plates.
(§2) Following the overnight incubation, the incubation medium was completely removed from the 24-well cell culture plates and replaced with 250 μl fresh DMEM (37° C.). The test compounds were made up to 250× the required test concentration in DMSO and were added to the wells in a volume of 1 μl. Plates were then mixed gently by swirling and then placed in an incubator for 1 hour (37° C., 95% air/5% CO2). Following the incubation period, 10 μl of arachidonic acid (750 μM) was added to each well to give a final arachidonic acid concentration of 30 μM. Plates were then incubated for a further 15 minutes, after which the incubation medium was removed from each well of the plates and stored at −20° C., prior to determination of prostaglandin E2 (PGE2) levels using enzyme immunoassay. The inhibitory potency of the test compound was expressed as an IC50 value, which is defined as the concentration of the compound required to inhibit the PGE2 release from the cells by 50%. The selectivity ratio of inhibition of COX-1 versus COX-2 was calculated by comparing respective IC50 values. The following IC50 values for inhibition of COX-2 and COX-1 were obtained for compounds of the invention: […]

The next assay deals with T2, human COX-2 (Homo sapiens, UniProt P35354).
T2 construct: expressed in transfected cells; host or cells: COS cells (stably transfected)
T2 sequence (P35354 18-604): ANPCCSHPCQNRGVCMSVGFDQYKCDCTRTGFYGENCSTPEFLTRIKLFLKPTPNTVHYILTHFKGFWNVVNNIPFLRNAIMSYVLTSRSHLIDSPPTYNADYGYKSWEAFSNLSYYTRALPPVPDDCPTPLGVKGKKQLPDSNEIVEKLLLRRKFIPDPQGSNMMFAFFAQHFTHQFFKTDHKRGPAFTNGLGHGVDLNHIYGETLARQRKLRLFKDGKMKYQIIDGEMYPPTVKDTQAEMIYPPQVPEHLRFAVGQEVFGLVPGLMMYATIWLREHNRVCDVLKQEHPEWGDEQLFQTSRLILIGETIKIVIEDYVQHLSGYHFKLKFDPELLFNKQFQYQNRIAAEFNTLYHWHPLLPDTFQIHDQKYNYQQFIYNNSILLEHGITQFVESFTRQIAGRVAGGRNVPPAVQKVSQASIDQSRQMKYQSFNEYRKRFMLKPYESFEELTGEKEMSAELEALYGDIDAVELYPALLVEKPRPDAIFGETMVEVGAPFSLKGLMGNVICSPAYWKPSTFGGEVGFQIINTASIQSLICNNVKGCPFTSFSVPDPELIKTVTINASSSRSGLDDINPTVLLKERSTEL
Nature of the assay: Inhibition of PGE2 release in COS cells stably transfected with human COX-2. It is filed as cell-based. As to conditions: COS cells transfected with human COX-2; 1 hour preincubation, 30 μM arachidonic acid for 15 minutes, PGE2 by enzyme immunoassay. On the procedure:
as §1, §2

Experimental findings from patent US6498166B1, “Pyrazolopyridines” (SmithKline Beecham Corporation, priority 1999, dated 2002) are described below.

pIC50: −log10 of the molar value. Where only a bound is given, the exact number is not on record here.

T1 sequence (P23219 24-599): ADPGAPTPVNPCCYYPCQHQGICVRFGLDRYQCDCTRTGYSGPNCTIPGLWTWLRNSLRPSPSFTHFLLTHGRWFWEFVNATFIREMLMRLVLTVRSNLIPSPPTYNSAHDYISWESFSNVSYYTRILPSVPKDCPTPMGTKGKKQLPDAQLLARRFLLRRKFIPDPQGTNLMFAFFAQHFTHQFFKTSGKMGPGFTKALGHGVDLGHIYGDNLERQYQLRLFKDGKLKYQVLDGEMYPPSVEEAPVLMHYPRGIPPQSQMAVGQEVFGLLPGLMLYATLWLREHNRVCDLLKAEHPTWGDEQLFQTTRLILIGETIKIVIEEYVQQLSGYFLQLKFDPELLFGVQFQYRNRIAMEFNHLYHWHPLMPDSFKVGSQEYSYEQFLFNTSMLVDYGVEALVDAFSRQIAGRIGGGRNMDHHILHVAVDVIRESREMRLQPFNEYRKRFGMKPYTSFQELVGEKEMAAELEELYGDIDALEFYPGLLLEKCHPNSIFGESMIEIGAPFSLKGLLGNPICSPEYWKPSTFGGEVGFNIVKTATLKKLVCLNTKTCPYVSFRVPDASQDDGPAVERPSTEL

The term pIC50 denotes −log10 of the IC50, conventionally taken in molar units. On to `NS(=O)(=O)c1ccc(-c2c(-c3ccc(F)cc3)nn3cc(Br)ccc23)cc1` [Example 3(vi), 4-[6-Bromo-2-(4-fluorophenyl)pyrazolo[1,5-a]pyridin-3-yl]benzenesulfonamide], for which the pIC50 was 5.17 at human COX-1 and 9.00 against human COX-2.

On to `CS(=O)(=O)c1ccc(-c2c(-c3ccc(F)cc3)nn3cc(C#N)ccc23)cc1` [Example 2, 2-(4-Fluorophenyl)-3-[4-(methylsulfonyl)phenyl]pyrazolo[1,5-a]pyridine-6-carbonitrile], for which the pIC50 at human COX-1 is less than 4.00; against human COX-2 it was 7.92.

On to `NS(=O)(=O)c1ccc(-c2c(-c3cccc(F)c3)nn3cc(Cl)ccc23)cc1` [Example 7, 4-[6-Chloro-2-(3-fluorophenyl)pyrazolo[1,5-a]pyridin-3-yl]benzenesulfonamide], for which the pIC50 was 5.17 against human COX-1 and 9.00 on human COX-2.

Consider `NS(=O)(=O)c1ccc(-c2c(-c3ccccc3)nn3cc(Cl)ccc23)cc1` [8(iii), 4-[6-Chloro-2-phenyl-pyrazolo[1,5-a]pyridin-3-yl]benzenesulfonamide], for which the pIC50 at human COX-1 is less than 4.00; against human COX-2 it was 8.30.

Turning to `NS(=O)(=O)c1ccc(-c2c(-c3ccc(F)cc3)nn3cc(Cl)ccc23)cc1` [Example 5(vi), 4-[6-Chloro-2-(4-fluorophenyl)pyrazolo[1,5-a]pyridin-3-yl]benzenesulfonamide], the pIC50 against human COX-1 is 4.68; on human COX-2, 7.68.

As to `CCOc1ccc(-c2nn3cc(Cl)ccc3c2-c2ccc(S(N)(=O)=O)cc2)cc1` [Example 6, 4-[6-Chloro-2-(4-ethoxyphenyl)pyrazolo[1,5-a]pyridin-3-yl]benzenesulfonamide], the pIC50 was less than 4.00 at human COX-1 and 7.92 against human COX-2.

Turning to `N#Cc1ccc2c(-c3ccc(S(N)(=O)=O)cc3)c(-c3ccc(F)cc3)nn2c1` [Example 1(iv), 4-[6-Cyano-2-(4-fluorophenyl)pyrazolo[1,5-a]pyridin-3-yl]benzenesulfonamide], the pIC50 was 4.68 at human COX-1 and 7.68 on human COX-2.

As to `CS(=O)(=O)c1ccc(-c2c(-c3ccc(F)cc3)nn3cc(Br)ccc23)cc1` [4(iii), 6-Bromo-2-(4-fluorophenyl)-3-[4-(methylsulfonyl)phenyl]pyrazolo[1,5-a]pyridine], the negative logarithm of the IC50 (pIC50) at human COX-1 was less than 4.00; against human COX-2, 8.30.
